Source: patent publication US20240299358A1, “COMPOSITIONS AND METHODS FOR DIAGNOSIS AND TREATMENT OF AUTOIMMUNE DISEASES” (DUKE UNIVERSITY, priority 2021, published 2024)

Test system: eHsp90
Experiment: In vivo imaging of eHsp90 expression in T cell transfer mouse model of IBD
Conditions: 10 nmoles IV
Procedure: The T cell transfer model of IBD was utilized to evaluate the imaging potential of HS-131 for other autoimmune diseases. Naïve T cells isolated from female donor mice were transferred into SCID mice via IP injection. 3-5 weeks post transfer mice develop inflammation, an extended colon and epithelial hyperplasia. 24 hours post HS-131 tail vein injection mice were cryopreserved and imaged as previously mentioned. […] Experiments represent one mouse.
IBD Disease: On study day 0, Balb/C mice were terminated, and spleens obtained for CD4+CD45RBhigh cell isolation. After cells had been sorted and obtained, each animal received an IP injection of at a minimum 4×10^5 cells (200 μl/mouse injections). […]
CryoViz™ Imaging: Whole mice were imaged at 10.23 μm×10.23 μm in-plane resolution using an Olympus MVX-10 microscope with a 1X objective and 0.63× magnification and 40 μm section thickness, using the Cryo Viz™ (BioInVision, Inc., Cleveland, USA). CryoViz™ is a fully automated, serial sectioning-and-imaging system which provides 3-dimensional, tiled, microscopic anatomical bright field and molecular fluorescence images over large fields-of-view such as a whole mouse. Images were acquired using a dual band FITC/TxRed fluorescence filter (Chroma, Inc., Rockingham, VT), a liquid crystal RGB filter and a low-noise monochrome camera. […]

Cc1nn(-c2ccc(C(N)=O)c(NCCCOCCOCCOCCOCCOCCCNCc3ccc(C(=C\C=C4\N(CCCCS(=O)(=O)[O-])c5ccccc5C4(C)C)/C=C/C4=[N+](CCCCS(=O)(=O)O)c5ccccc5C4(C)C)cc3)c2)c2c1C(=O)CC(C)(C)C2 [HS-131]
uptake in joints or paws of IBD mouse (24 hours post injection): no uptake
fluorescence from the inflamed bowels of IBD mouse (24 hours post injection (FIG. 7A)): extensive fluorescent signaling
